Reference: patent US11274103B2, “Compounds for the modulation of MYC activity” (Syros Pharmaceuticals, Inc., priority 2016, dated 2022)
Where a name gives a salt, the structure may show the parent alone.

biological target: T1, c-Myc/Max/Ebox DNA (Homo sapiens, UniProt P01106); experiment: c-Myc/Max/Ebox DNA AlphaScreen Assay; format: binding; details: calculated IC50; free c-Myc 20 nM, his6-Max 5 nM, biotinylated Ebox oligo 10 nM; 2 hour incubation
T1 construct: his6 (cleaved yes)
Description: Compounds of the invention were assayed for c-Myc/Max/EBox activity as described in the following protocol. Human his6-c-Myc and his6-Max were used with biotinylated DNA containing a single Ebox sequence (biotin[…] (SEQ ID NO: 1)) purchased from MWG Operon. Free c-Myc was generated from his6-c-Myc through thrombin cleavage of the his6 tag (SEQ ID NO: 2). For 384-well plate assays, 10 μL of a 2× solution of free c-Myc (20 nM final), Ni^2+ coated Acceptor Beads (25 μg/ml final), and biotinylated Ebox oligo (10 nM final) were added to 384-well plates with a Biotek EL406 liquid handler. 50 nL of compounds from stock plates were added by pin transfer using a Janus Workstation (PerkinElmer), allowing the compounds to interact with c-Myc prior to c-Myc binding with Max. In the current assay, DMSO was not allowed to exceed 2% v/v of the assay. 10 μl of 2× master mix containing streptavidin-coated donor beads (25 μg/ml final) and his6-Max (5 nM) were added. AlphaScreen measurements were performed on an Envision plate reader (PerkinElmer) utilizing the manufacturer's protocol.
Both master mixes were made in room temperature assay buffer (50 mM HEPES, 150 mM NaCl, 0.2% w/v BSA, 0.02% w/v Tween20, 40 μg/ml glycogen, 500 μM DTT, pH 8.0, wherein both DTT and glycogen were added fresh). Alpha beads were added to respective master solutions. All subsequent steps were performed in low light conditions. Solution 1: 2× solution of components with final concentrations of c-Myc Ni-coated Acceptor Beads (25 μg/ml), and biotinylated Ebox oligo (10 nM). Solution 2: 2× solution of streptavidin-coated donor beads (25 μg/ml final) and his6-Max 10 μL. Solution 1 was added to 384-well plate (AlphaPlate-384, PerkinElmer) with Biotek EL406 liquid handler and the plates were centrifuged very briefly. 50 nL of compounds from stock plates were added by pin transfer using a Janus Workstation. Solution 2 (10 μL) was added with the liquid handler. Plates were sealed with foil to block light exposure and prevent evaporation. Plates were very briefly centrifuged followed by 2 hour incubation. AlphaScreen measurements were performed on an Envision 2104 utilizing the manufacturer's protocol. Excitation was at 680 nm for donor bead release of singlet oxygen and emission was read with a bandpass filter from 520-620 nm. Glycogen: Roche Diagnostics #10901393001. Plate 1536: Perkin Elmer, 6004350. Plate 384: Perkin Elmer, 6005350. Nickel-His Alpha Beads: 6760619R. The data from this assay are summarized in Table 2 below (Myc/Max/DNA Activity), where “A” represents a calculated IC50 of less than 500 nM; “B” represents a calculated IC50 of between 500 nM and 5 μM; “C” represents a calculated IC50 of between 5 μM and 10 μM; “D” represents a value of greater than 10 μM, and “NT” represents a compound for which an assay result was not obtained.

T1 sequence (P01106 whole entry): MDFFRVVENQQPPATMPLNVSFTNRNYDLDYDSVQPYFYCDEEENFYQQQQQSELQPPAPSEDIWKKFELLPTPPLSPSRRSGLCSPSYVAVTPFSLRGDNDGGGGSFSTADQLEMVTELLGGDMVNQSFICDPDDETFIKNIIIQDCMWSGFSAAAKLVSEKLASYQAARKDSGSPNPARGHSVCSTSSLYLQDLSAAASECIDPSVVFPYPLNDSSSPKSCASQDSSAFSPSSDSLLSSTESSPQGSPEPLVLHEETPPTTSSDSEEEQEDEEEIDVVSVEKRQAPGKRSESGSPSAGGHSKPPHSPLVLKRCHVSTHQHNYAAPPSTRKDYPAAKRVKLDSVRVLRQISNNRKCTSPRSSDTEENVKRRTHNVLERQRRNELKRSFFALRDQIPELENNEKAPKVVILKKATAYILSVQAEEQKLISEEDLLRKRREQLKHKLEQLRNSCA

IC50 [nM]	Structure (SMILES)
500 to 5000	CC(C)NCCC(=O)Nc1sc2c(c1-c1nc(C(=O)O)cs1)CCNC2 [Compound 101, 2-(2-(3-(isopropylamino)propanamido)-4,5,6,7-tetrahydrothieno[2,3-c]pyridin-3-yl)thiazole-4-carboxylic acid]
500 to 5000	CC(C)NCCC(=O)Nc1sc2c(c1-c1nc(C3=CCOCC3)cs1)CCNC2 [Compound 130, N-(3-(4-(3,6-Dihydro-2H-pyran-4-yl)thiazol-2-yl)-4,5,6,7-tetrahydrothieno[2,3-c]pyridin-2-yl)-3-(isopropylamino)propanamide dihydrochloride]
< 500	CC(C)NCCC(=O)Nc1sc2c(c1-c1nc(-c3cncc(F)c3)cs1)CCNC2 [Compound 115]
> 10000	CC(=O)Nc1sc2c(c1-c1nc(-c3ccccc3)cs1)CCNC2 [Compound 100, N-(3-(4-phenylthiazol-2-yl)-4,5,6,7-tetrahydrothieno[2,3-c]pyridin-2-yl)acetamide]
< 500	CC(C)NCCC(=O)Nc1sc2c(c1-c1nc(-c3cccnc3)cs1)CCNC2 [Compound 103]
< 500	CC(C)NCCC(=O)Nc1sc2c(c1-c1nc(-c3cnn(C)c3)cs1)CCNC2 [Compound 114]
< 500	CC(C)NCCC(=O)Nc1sc2c(c1-c1nc(C3=CCNCC3)cs1)CCNC2 [Compound 126]
< 500	CC(C)NCCC(=O)Nc1sc2c(c1-c1nc(-c3ccccn3)cs1)CCNC2 [Compound 104, 3-(Isopropylamino)-N-(3-(4-(pyridin-2-yl)thiazol-2-yl)-4,5,6,7-tetrahydrothieno[2,3-c]pyridin-2-yl)propanamide]
< 500	COc1ncccc1-c1csc(-c2c(NC(=O)CCNC(C)C)sc3c2CCNC3)n1 [Compound 127]
> 10000	CC(C)NCCC(=O)Nc1sc2c(c1-c1nc(C(=O)Nc3ccccc3)cs1)CCNC2 [Compound 113, 2-(2-(3-(isopropylamino)propanamido)-4,5,6,7-tetrahydrothieno[2,3-c]pyridin-3-yl)-N-phenylthiazole-4-carboxamide]
< 500	CC(C)NCCC(=O)Nc1sc2c(c1-c1nc(-c3cncnc3)cs1)CCNC2 [Compound 128]
500 to 5000	Cc1ccncc1-c1csc(-c2c(NC(=O)CCNC(C)C)sc3c2CCNC3)n1 [Compound 123]
< 500	COc1cncc(-c2csc(-c3c(NC(=O)CCNC(C)C)sc4c3CCNC4)n2)c1 [Compound 119]
< 500	Cc1cncc(-c2csc(-c3c(NC(=O)CCNC(C)C)sc4c3CCNC4)n2)c1 [Compound 122]
500 to 5000	Cc1cn(-c2csc(-c3c(NC(=O)CCNC(C)C)sc4c3CCNC4)n2)cn1 [Compound 117]
< 500	CC(C)NCCC(=O)Nc1sc2c(c1-c1nc(-c3ccc[nH]c3=O)cs1)CCNC2 [Compound 129]
< 500	CC(C)NCCC(=O)Nc1sc2c(c1-c1nc(C(=O)Nc3cccnc3)cs1)CCNC2 [Compound 124, 2-(2-(3-(Isopropylamino)propanamido)-4,5,6,7-tetrahydrothieno[2,3-c]pyridin-3-yl)-N-(pyridin-3-yl)thiazole-4-carboxamide]
500 to 5000	COCCNCCC(=O)Nc1sc2c(c1-c1nc(-c3ccccn3)cs1)CCNC2 [Compound 110]
